Experimental data taken from PMC5900025, “Naphthoquinone Derivatives as Scaffold to Develop New Drugs for Tuberculosis Treatment” (Frontiers in Microbiology, 2018).
In brackets after ≈: the same amount, converted by molar mass.

Tests used:
[1] = system: M. tuberculosis mono-resistant to INH (INHR, ATCC 35822), katG S315T; type: cell-based, Mycobacterium tuberculosis
[2] = system: M. tuberculosis mono-resistant to RIF (RMPR, ATCC 35838), rpoB H526Y; type: cell-based, Mycobacterium tuberculosis

O=C1C(Cl)=C(Cl)C(=O)c2ccccc21 [Compound 1, 2,3-Dichloronaphthalene-1,4-dione]
MIC [1]: 110.6 µM (≈ 25.1 µg/mL) | MIC [2]: 110.6 µM (≈ 25.1 µg/mL)

CC1(C)CCC2=C(O1)C(=O)c1ccccc1C2=O [Compound 2, 2,2-Dimethyl-3,4-dihydro-2H-benzo[g]chromene-5, 10-dione]
MIC [1]: 206.6 µM (≈ 50.1 µg/mL) | MIC [2]: 206.6 µM (≈ 50.1 µg/mL)

CC1(C)CC2=C(O1)C(=O)c1ccccc1C2=O [Compound 3, 2,2-Dimethyl-2,3-dihydronaphtho[2,3-b]furan-4,9-dione]
MIC [1]: 54.8 µM (≈ 12.5 µg/mL) | MIC [2]: 54.8 µM (≈ 12.5 µg/mL)

C=CCOC1=CC(=O)c2ccccc2C1=O [Compound 4, 2-(Allyloxy)naphthalene-1,4-dione]
MIC [1]: 234 µM (≈ 50.1 µg/mL) | MIC [2]: 234 µM (≈ 50.1 µg/mL)

NC1=CC(=O)c2ccccc2C1=O [Compound 5, 2-Aminonaphthalene-1,4-dione]
MIC [1]: 36.1 µM (≈ 6.25 µg/mL) | MIC [2]: 36.1 µM (≈ 6.25 µg/mL)

O=C1C=C(Nc2ccccc2)C(=O)c2ccccc21 [Compound 6, 2-(Phenylamino)naphthalene-1,4-dione]
MIC [1]: 100.4 µM (≈ 25 µg/mL) | MIC [2]: 12.5 µM (≈ 3.12 µg/mL)

NNC(=O)c1ccncc1 [INH, isoniazid, reference compound]
MIC [1]: 14.6 µM (≈ 2 µg/mL) | MIC [2]: ≤0.219 µM

CO[C@H]1/C=C/O[C@@]2(C)Oc3c(C)c(O)c4c(O)c(c(/C=N/N5CCN(C)CC5)c(O)c4c3C2=O)NC(=O)/C(C)=C\C=C\[C@H](C)[C@H](O)[C@@H](C)[C@@H](O)[C@@H](C)[C@H](OC(C)=O)[C@@H]1C [RIF, rifampicin, reference compound]
MIC [1]: 0.304 µM (≈ 0.25 µg/mL) | MIC [2]: 622.2 µM (≈ 512 µg/mL)
